Laboratory results reported in patent publication US20240025887A1, “THIENYL AND CYCLOALKYL AMINOPYRIMIDINE COMPOUNDS AS INHIBITORS OF NUAK KINASES, COMPOSITIONS AND USES THEREOF” (Ontario Institute for Cancer Research (OICR), priority 2021, published 2024).

How the values were obtained:
NUAK1 = molecular target: T1, NUAK1 (Homo sapiens, UniProt O60285); assay: NUAK1 counter screen; type: biochemical
T1 sequence (O60285 1-661): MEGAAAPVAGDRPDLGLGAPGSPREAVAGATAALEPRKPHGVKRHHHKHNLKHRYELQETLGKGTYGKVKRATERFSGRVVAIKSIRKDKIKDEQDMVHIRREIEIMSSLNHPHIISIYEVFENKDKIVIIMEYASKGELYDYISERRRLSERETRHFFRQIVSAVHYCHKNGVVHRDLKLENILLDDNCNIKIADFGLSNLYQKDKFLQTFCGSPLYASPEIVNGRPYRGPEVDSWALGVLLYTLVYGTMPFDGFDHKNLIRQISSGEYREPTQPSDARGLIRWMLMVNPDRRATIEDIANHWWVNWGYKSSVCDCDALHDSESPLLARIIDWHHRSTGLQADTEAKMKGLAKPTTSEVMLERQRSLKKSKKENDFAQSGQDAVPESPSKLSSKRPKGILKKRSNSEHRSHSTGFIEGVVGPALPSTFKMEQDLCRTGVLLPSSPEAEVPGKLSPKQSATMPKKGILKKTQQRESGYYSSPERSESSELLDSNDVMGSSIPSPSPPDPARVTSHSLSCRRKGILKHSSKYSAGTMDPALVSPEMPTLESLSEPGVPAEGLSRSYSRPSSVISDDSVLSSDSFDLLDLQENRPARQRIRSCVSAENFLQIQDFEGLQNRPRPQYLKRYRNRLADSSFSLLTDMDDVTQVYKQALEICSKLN
Method in brief: (§1)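 Radiometric assay with full-length recombinant NUAK2 in 8 mM MOPS pH 7.0, 0.2 mM EDTA, 10 mM magnesium acetate, 300 μM peptide substrate and [33P]-ATP, 40 min at room temperature. Phosphoric acid stop, filter capture, scintillation counting. Aurora A and NUAK1 used as counter screens.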

NUAK2 (h) = molecular target: T2, NUAK2 (h) (Homo sapiens, UniProt Q9H093); assay: NUAK2 enzymatic assay (radiometric, Eurofins); type: biochemical; details: radiometric, full-length recombinant enzyme
T2 construct: This assay was done radiometrically using full-length, recombinant enzyme; purchased Eurofins
T2 sequence (Q9H093 1-628): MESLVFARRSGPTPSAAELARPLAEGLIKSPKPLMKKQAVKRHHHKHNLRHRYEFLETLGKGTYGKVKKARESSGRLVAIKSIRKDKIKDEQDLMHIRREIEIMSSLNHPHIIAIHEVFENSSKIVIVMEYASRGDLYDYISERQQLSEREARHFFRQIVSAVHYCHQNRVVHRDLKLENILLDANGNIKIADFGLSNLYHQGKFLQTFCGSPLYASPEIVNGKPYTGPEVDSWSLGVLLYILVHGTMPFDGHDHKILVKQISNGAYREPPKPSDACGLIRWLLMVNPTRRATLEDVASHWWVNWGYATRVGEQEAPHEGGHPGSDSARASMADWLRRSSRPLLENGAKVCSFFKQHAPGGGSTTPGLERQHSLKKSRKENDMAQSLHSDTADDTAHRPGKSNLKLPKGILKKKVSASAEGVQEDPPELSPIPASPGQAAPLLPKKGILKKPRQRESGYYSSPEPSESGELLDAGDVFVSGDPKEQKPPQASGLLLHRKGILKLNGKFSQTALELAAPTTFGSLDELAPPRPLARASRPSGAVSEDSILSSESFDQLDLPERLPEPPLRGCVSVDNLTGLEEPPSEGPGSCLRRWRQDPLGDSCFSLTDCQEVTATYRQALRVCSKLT
Method in brief: as §1

MDA-MB-231 cells = assay: Tumor cell growth inhibition assay (ATPlite); type: cell-based; details: Homo sapiens, 120 h, MDA-MB-231 breast tumor cell line, 5 days
Procedure: MDA-MB-231 cells were seeded into a 384-well plate at 1,000 cells/well in 50 μl medium (Alpha-MEM containing 10% FBS, […] Normocin, Invivogen and […] Gentamycin, Invitrogen). Plates were then incubated overnight for the cells to attach. An HP D300 digital dispenser was used to dose cells with DMSO or test compounds across a 16-point range of concentrations (high dose of 10 uM to low dose of 5 nM). Plates were incubated in a humidified 5% CO2 incubator at 37° C. After 5 days, plates were removed from the incubator and equilibrated to room temperature. An equal volume of ATPlite assay reagent was then added to each well, and samples processed according to manufacturer's instructions (Perkin Elmer). Luminescent signals were then measured using an Envision plate reader equipped with a US-Luminescence detector.

Aurora A = molecular target: T3, Aurora A (Homo sapiens, UniProt O14965); assay: Aurora A counter screen; type: biochemical; details: read-out: AUR-A (IC50)
T3 sequence (O14965 1-403): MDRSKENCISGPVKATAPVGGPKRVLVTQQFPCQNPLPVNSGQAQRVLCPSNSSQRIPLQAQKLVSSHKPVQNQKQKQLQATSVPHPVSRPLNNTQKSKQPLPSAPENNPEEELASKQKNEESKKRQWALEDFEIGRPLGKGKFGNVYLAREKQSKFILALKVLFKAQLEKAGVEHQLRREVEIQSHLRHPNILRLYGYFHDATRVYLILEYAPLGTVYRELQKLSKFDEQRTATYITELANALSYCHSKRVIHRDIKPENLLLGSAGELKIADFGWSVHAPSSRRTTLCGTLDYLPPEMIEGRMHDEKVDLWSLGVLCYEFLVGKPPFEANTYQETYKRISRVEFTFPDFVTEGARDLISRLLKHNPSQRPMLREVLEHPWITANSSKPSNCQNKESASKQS
Method in brief: as §1

| IC50 (NUAK1) [nM] | IC50 (NUAK2 (h)) [nM] | IC50 (MDA-MB-231 cells) [nM] | IC50 (Aurora A) [nM] | Compound |
| --- | --- | --- | --- | --- |
| 0.1 to 10 | 0.1 to 10 | 142 | 11 to 100 | CN1CCN(C2CCN(c3ccc(Nc4ncc(C(F)(F)F)c(Nc5ccsc5C(N)=O)n4)c(OC(F)F)c3)CC2)CC1 [Compound I-52, 3-((2-((2-(difluoromethoxy)-4-(4-(4-methylpiperazin-1-yl)piperidin-1-yl)phenyl)amino)-5-(trifluoromethyl)pyrimidin-4-yl)amino)thiophene-2-carboxamide] |
| 11 to 100 | 11 to 100 | 932 | > 1000 | CN1CCN(C2CCN(c3ccc(Nc4ncc(Cl)c(N[C@@H]5CCCC[C@H]5C(N)=O)n4)c(OC(F)F)c3)CC2)CC1 [Compound I-87, (1R,2R)-2-((5-chloro-2-((2-(difluoromethoxy)-4-(4-(4-methylpiperazin-1-yl)piperidin-1-yl)phenyl)amino)pyrimidin-4-yl)amino)cyclohexane-1-carboxamide] |
| 11 to 100 | 0.1 to 10 | 120 | 101 to 1000 | CN1CCN(c2ccc(Nc3ncc(C#N)c(Nc4ccsc4C(N)=O)n3)c(OC(F)F)c2)CC1 [Compound I-38, 3-((5-cyano-2-((2-(difluoromethoxy)-4-(4-methylpiperazin-1-yl)phenyl)amino)pyrimidin-4-yl)amino)thiophene-2-carboxamide] |
| 11 to 100 | 11 to 100 | – | 101 to 1000 | Cc1csc(Nc2nc(Nc3ccc(N4CCN(C)CC4)cc3OC(F)F)ncc2Cl)c1C(N)=O [Compound I-15, 2-((5-chloro-2-((2-(difluoromethoxy)-4-(4-methylpiperazin-1-yl)phenyl)amino)pyrimidin-4-yl)amino)-4-methylthiophene-3-carboxamide] |
| 0.1 to 10 | 11 to 100 | – | 11 to 100 | CN(C)C1CCN(c2ccc(Nc3ncc(Cl)c(Nc4ccsc4C(N)=O)n3)c(OC(F)F)c2)CC1 [Compound I-47, 3-((5-chloro-2-((2-(difluoromethoxy)-4-(4-(dimethylamino)piperidin-1-yl)phenyl)amino)pyrimidin-4-yl)amino)thiophene-2-carboxamide] |
| 11 to 100 | 11 to 100 | – | > 1000 | Cc1cnc(Nc2ccc(N3CCN(C)CC3)cc2OC(F)F)nc1Nc1ccsc1C(N)=O [Compound I-4, 3-((2-((2-(difluoromethoxy)-4-(4-methylpiperazin-1-yl)phenyl)amino)-5-methylpyrimidin-4-yl)amino)thiophene-2-carboxamide] |
| 101 to 1000 | 101 to 1000 | – | 101 to 1000 | NC(=O)c1sccc1Nc1nc(Nc2ccc(N3CCN(CC(F)(F)F)CC3)cc2OC(F)F)ncc1Cl [Compound I-33, 3-((5-chloro-2-((2-(difluoromethoxy)-4-(4-(2,2,2-trifluoroethyl)piperazin-1-yl)phenyl)amino)pyrimidin-4-yl)amino)thiophene-2-carboxamide] |
| 11 to 100 | 0.1 to 10 | – | 101 to 1000 | CN1C[C@H]2C[C@@H]1CN2c1ccc(Nc2ncc(Cl)c(Nc3ccsc3C(N)=O)n2)c(OC(F)F)c1 [Compound I-9, 3-((5-chloro-2-((2-(difluoromethoxy)-4-((1R,4R)-5-methyl-2,5-diazabicyclo[2.2.1]heptan-2-yl)phenyl)amino)pyrimidin-4-yl)amino)thiophene-2-carboxamide] |
| 11 to 100 | 11 to 100 | – | 11 to 100 | CC(C)(C)N1CCN(c2ccc(Nc3ncc(Cl)c(Nc4sccc4C(N)=O)n3)c(OC(F)F)c2)CC1 [Compound I-22, 2-((2-((4-(4-(tert-butyl)piperazin-1-yl)-2-(difluoromethoxy)phenyl)amino)-5-chloropyrimidin-4-yl)amino)thiophene-3-carboxamide] |
| 11 to 100 | 11 to 100 | – | 101 to 1000 | CNC(=O)c1sccc1Nc1nc(Nc2ccc(N3CCN(C)CC3)cc2OC(F)F)ncc1Cl [Compound I-7, 3-((5-chloro-2-((2-(difluoromethoxy)-4-(4-methylpiperazin-1-yl)phenyl)amino)pyrimidin-4-yl)amino)-N-methylthiophene-2-carboxamide] |
| 11 to 100 | 0.1 to 10 | – | 101 to 1000 | NC(=O)c1sccc1Nc1nc(Nc2ccc(N3CCC(N4CCCCC4)CC3)cc2OC(F)F)ncc1C(F)(F)F [Compound I-76] |
| 11 to 100 | 11 to 100 | – | 101 to 1000 | CC(C)(C)N1CCN(C2CCN(c3ccc(Nc4ncc(C(F)(F)F)c(Nc5ccsc5C(N)=O)n4)c(OC(F)F)c3)CC2)CC1 [Compound I-79, 3-((2-((4-(4-(4-(tert-butyl)piperazin-1-yl)piperidin-1-yl)-2-(difluoromethoxy)phenyl)amino)-5-(trifluoromethyl)pyrimidin-4-yl)amino)thiophene-2-carboxamide] |
| 0.1 to 10 | 0.1 to 10 | – | 11 to 100 | CN1CCN(C2CCN(c3ccc(Nc4ncc(Cl)c(Nc5cscc5C(N)=O)n4)c(OC(F)F)c3)CC2)CC1 [Compound I-51, 4-((5-chloro-2-((2-(difluoromethoxy)-4-(4-(4-methylpiperazin-1-yl)piperidin-1-yl)phenyl)amino)pyrimidin-4-yl)amino)thiophene-3-carboxamide] |
| 101 to 1000 | > 1000 | – | > 1000 | NC(=O)c1ccsc1Nc1nc(Nc2ccc(N3CCCC3)cc2OC(F)F)ncc1Cl [Compound I-31, 2-((5-chloro-2-((2-(difluoromethoxy)-4-(pyrrolidin-1-yl)phenyl)amino)pyrimidin-4-yl)amino)thiophene-3-carboxamide] |
| 11 to 100 | 0.1 to 10 | – | > 1000 | CN1CCN(c2ccc(Nc3ncc(Cl)c(Nc4ccsc4C(N)=O)n3)c(OC(F)(F)F)c2)CC1 [Compound I-10, 3-((5-chloro-2-((4-(4-methylpiperazin-1-yl)-2-(trifluoromethoxy)phenyl)amino)pyrimidin-4-yl)amino)thiophene-2-carboxamide] |

| Compound | IC50 (NUAK1) [nM] | IC50 (NUAK2 (h)) [nM] | IC50 (MDA-MB-231 cells) [nM] | IC50 (Aurora A) [nM] |
| --- | --- | --- | --- | --- |
| CN1C2CCC1CN(c1ccc(Nc3ncc(Cl)c(Nc4sccc4C(N)=O)n3)c(OC(F)F)c1)C2 [Compound I-32, 2-((5-chloro-2-((2-(difluoromethoxy)-4-(8-methyl-3,8-diazabicyclo[3.2.1]octan-3-yl)phenyl)amino)pyrimidin-4-yl)amino)thiophene-3-carboxamide] | 11 to 100 | 11 to 100 | – | 101 to 1000 |
